{
  "source": "patent US6825192B1",
  "about": "“Heterodiazinone derivatives” (Eisai Co., Ltd., priority 1999, dated 2004)",
  "note": "Where a name gives a salt, the structure may show the parent alone.",
  "data": [
    {"system": "AMPA receptor", "assay": "Inhibitory action on AMPA-inducing inflow of calcium into nerve cells (Fura2-AM)", "assay_type": "cell-based", "settings": "rat cerebral cortex nerve cells on astrocytes, 1 μM MK-801, stimulated by 2 μM AMPA, fluorescence 340/380 nm", "protocol": "The cerebral cortex was excised from the brain of a rat on day 18 after birth and treated with trypsin and DNase, whereby the cells were dispersed. The cells were allowed to float on DMEM containing 10% serum, inoculated into a culture bottle, and their astrocytes were grown. The astrocytes were re-dispersed with trypsin and inoculated onto each well on a 96-well plate. After it was confirmed that the bottom of each well was completely covered with the astrocytes after culture for 1 week, cerebral cortex nerve cells dispersed in the same manner as above were inoculated thereon. After 24 hours, the medium was exchanged with fresh one, and after culture for further 1 week, the medium was exchanged with a medium containing 1 μM MK-801.\nThe inflow of calcium into the cells was measured using Fura2-AM that is a calcium-sensitive fluorescent pigment. By treating the cells with a Fura2-AM-containing medium for 1 hour, Fura2-AM was incorporated into the cells, and the medium was exchanged with a Tyrode solution containing 1 μM MK-801. After a test compound was added, the cells were stimulated by 2 μM AMPA. The change in the amount of calcium flowing into the cells was measured as a change in the fluorescence intensity at wavelengths of 340/380 nm. The effect of a test compound was evaluated where the reaction caused by AMPA added to the Tyrode solution free of the test compound was used as the control.", "units": {"IC50": "µM"}, "values": [
      {"smiles": "Cn1cccc1C1=NN(c2ccccc2)C(=O)CO1", "note": "[Example 3, 2-(1-Methyl-2-pyrolyl)-4-phenyl-4H-1,3,4-oxadiazine-5(6H)-one]", "IC50": 33.2},
      {"smiles": "O=C1CSC(c2ccccc2)=NN1c1ccccc1", "note": "[Example 4, 2,4-Diphenyl-4H-1,3,4-thiadiazine-5(6H)-one]", "IC50": 12},
      {"smiles": "O=C1COC(c2ccc[nH]2)=NN1c1ccccc1", "note": "[Example 6, 2-(2-Pyrrolyl)-4-phenyl-4H-1,3,4-oxadiazine-5(6H)-one]", "IC50": 48},
      {"smiles": "Cc1cccc(C2=NN(c3ccccc3)C(=O)CO2)n1", "note": "[Example 8, 2-(6-Methyl-2-pyridyl)-4-phenyl-4H-1,3,4-oxadiazine-5(6H)-one hydrochloride]", "IC50": 21.1},
      {"smiles": "O=C1COC(c2ccccn2)=NN1c1ccc(F)cc1F", "note": "[Example 10, 2-(2-Pyridyl)-4-(2,4-difluorophenyl)-4H-1,3,4-oxadiazine-5(6H)-one hydrochloride]", "IC50": 44.2},
      {"smiles": "O=C1COC(c2ccccn2)=NN1C1CCCCC1", "note": "[Example 11, 2-(2-Pyridyl)-4-cyclohexyl-4H-1,3,4-oxadiazine-5(6H)-one hydrochloride]", "IC50": 69},
      {"smiles": "O=C1COC(c2ccnc(Cl)c2)=NN1c1ccccc1", "note": "[Example 12, 2-(2-Chloro-4-pyridyl)-4-phenyl-4H-1,3,4-oxadiazine-5(6H)-one hydrochloride]", "IC50": 42.8},
      {"smiles": "O=C1COC(/C=C/c2ccccc2)=NN1c1ccccc1", "note": "[Example 15, 2-Styryl-4-phenyl-4H-1,3,4-oxadiazine-5(6H)-one]", "IC50": 27.5},
      {"smiles": "O=C1COC(/C=C/c2cccnc2)=NN1c1ccccc1", "note": "[Example 16, 2-[2-(3-Pyridyl)vinyl]-4-phenyl-4H-1,3,4-oxadiazine-5(6H)-one]", "IC50": 24.9},
      {"smiles": "COc1ccccc1C1=NN(c2ccccc2Br)C(=O)CO1", "note": "[Example 17, 2-(2-Methoxyphenyl)-4-(2-bromophenyl)-4H-1,3,4-oxadiazine-5(6H)-one]", "IC50": 5.83},
      {"smiles": "O=C1COC(c2ccccc2[N+](=O)[O-])=NN1c1ccccc1", "note": "[Example 20, 2-(2-Nitrophenyl)-4-phenyl-4H-1,3,4-oxadiazine-5(6H)-one]", "IC50": 28.2},
      {"smiles": "O=C1COC(C2CCCCC2)=NN1c1ccccc1", "note": "[Example 22, 2-Cyclohexyl-4-phenyl-4H-1,3,4-oxadiazine-5(6H)-one]", "IC50": 67.3},
      {"smiles": "COc1ccccc1C1=NN(c2ccccc2F)C(=O)CO1", "note": "[Example 26, 2-(2-Methoxyphenyl)-4-(2-fluorophenyl)-4H-1,3,4-oxadiazine-5(6H)-one]", "IC50": 10.8},
      {"smiles": "O=C1COC(c2ccccc2)=NN1C1CCCCC1", "note": "[Example 27, 2-Phenyl-4-cyclohexyl-4H-1,3,4-oxadiazine-5(6H)-one]", "IC50": 33.1},
      {"smiles": "COc1ccccc1C1=NN(C2CCCCC2)C(=O)CO1", "note": "[Example 28, 2-(2-Methoxyphenyl)-4-cyclohexyl-4H-1,3,4-oxadiazine-5(6H)-one]", "IC50": 25.2},
      {"smiles": "O=C1COC(c2cccnc2)=NN1c1ccccc1", "note": "[Example 29, 2-(3-Pyridyl)-4-phenyl-4H-1,3,4-oxadiazine-5(6H)-one hydrochloride]", "IC50": 43.5},
      {"smiles": "O=C1COC(c2ccccc2)=NN1c1ccccc1Br", "note": "[Example 30, 2-Phenyl-4-(2-bromophenyl)-4H-1,3,4-oxadiazine-5(6H)-one]", "IC50": 1.73},
      {"smiles": "O=C1COC(c2cccs2)=NN1c1ccccc1", "note": "[Example 31, 2-(2-Thienyl)-4-phenyl-4H-1,3,4-oxadiazine-5(6H)-one]", "IC50": 8.3},
      {"smiles": "O=C1COC(Cc2ccccc2)=NN1c1ccccc1", "note": "[Example 32, 2-Benzyl-4-phenyl-4H-1,3,4-oxadiazine-5(6H)-one]", "IC50": 36.6},
      {"smiles": "O=C1COC(c2ccccn2)=NN1c1ccccc1Br", "note": "[Example 33, 2-(2-Pyridyl)-4-(2-bromophenyl)-4H-1,3,4-oxadiazine-5(6H)-one]", "IC50": 4.28},
      {"smiles": "O=C1COC(c2ccccn2)=NN1c1ccccc1F", "note": "[Example 34, 2-(2-Pyridyl)-4-(2-fluorophenyl)-4H-1,3,4-oxadiazine-5(6H)-one]", "IC50": 9.21},
      {"smiles": "COc1ccccc1N1N=C(c2ccccn2)OCC1=O", "note": "[Example 35, 2-(2-Pyridyl)-4-(2-methoxyphenyl)-4H-1,3,4-oxadiazine-5(6H)-one]", "IC50": 42.7}
    ]}
  ]
}
